Data set [1] in a line: Circulatory half-life after subcutaneous administration to rats. As to conditions: rat, in vivo, sc. The source says: The unique pharmacokinetic profile of veldoreotide acetate as evaluated in animals is consistent with its metabolic stability as evaluated in-vitro against various enzymes and tissue homogenates. […] This prolonged half-life is due to its unique “flip-flop” kinetics, a result of its slow release from the injection site.

Data set [2] concerns CHO-cells expression cloned human SST-R5. Nature of the data set: Growth inhibition of CHO cells. It is filed as cell-based.
The nature of data set [3]: Quantitative assessment of veldoreotide acetate solubility by HPLC. The format is physicochemical. The note with it: read-out: Solubility (g/liter) - HPLC. An excerpt:
The solubility of veldoreotide acetate in aqueous media was screened by the following method. A fixed amount of 10 milligrams of the peptide was weighed and dissolved at ambient temperature by increased (incremental) volumes of the tested medium until a complete solubility was observed, i.e, clear/transparent solution and absence of any precipitates (the solubility endpoint values were defined according to USP guidance). Following the results of the screening studies, several media were selected for verification studies based on quantitative assessment of the peptide concentration by HPLC (maximal solubility). The results of the screening study are depicted in Table 1 while the results of the verification studies are included in Table 2.

Data set [4] in a line: Peptide content, encapsulation efficiency and residual additives of microspheres. It is filed as physicochemical. The note with it: Example 7 PLGA 50:50 (7-17 kDa) microspheres. The source says: These observations and conclusion are supported by the analysis of the residual HPB concentration in the MS formulations of HPB. Indeed, the analytical data (see below) confirms that the same ratio of HPB:PEP were maintained in the final MS of HPB and therefore verifying the conditions and data of Table 6.
Therefore, unlike the case of HPB, the effect of the DEX on the COR005 surface activity at the injection site seems to be negligible. The effect for the DEX is addressed in the SEM analysis section below.
Tables 19 and 20 summarize the peptide content and encapsulation efficiency (EE) of bulk samples of microspheres, measured by HPLC.
PLGA microspheres containing veldoreotide acetate were prepared. 500 mg of PLGA 50:50 (7-17 kDa) was dissolved in 5 mL dichloromethane oil phase). An aqueous solution contacting 50 mg of veldoreotide acetate in 1 ml of DDW prepared separately (inner aqueous phase). The first aqueous phase was emulsified into the oil phase (containing PLGA), using a high-speed homogenizer (Polytron) at 2-8° C. using different speeds and time durations to form water in oil primary emulsion. The primary emulsion was added (drop wise) into the 100 ml of external aqueous phase containing 1% PVA solution in PBS to form secondary emulsion. […]

The subject of data set [5] is human Carcinoid cell line. Nature of the data set: Chromogranin A release. It is filed as cell-based.

Structures can show the parent of a compound that is named as a salt. Where two headings read alike, the source gives them in different places.

What is called half-life is the time needed for the level to fall by half in the phase considered.

Compound `C[C@@H](O)[C@@H]1NC(=O)[C@H](CCCCN)NC(=O)[C@@H](Cc2c[nH]c3ccccc23)NC(=O)[C@H](Cc2c[nH]c3ccccc23)NC(=O)[C@H](Cc2ccccc2)NC(=O)CCCNC(=O)CCCN(CC(N)=O)C(=O)[C@H](Cc2ccccc2)NC1=O` [Veldoreotide Acetate, Cyclo(-γ-aminobutyryl-L-phenylalanyl-L-tryptophanyl-D-tryptophanyl-L-lysyl-L-threonyl-L-phenylalanyl-N-carbamoylmethyl-γ-aminobutyryl), acetate salt] gave a half-life in data set [1] of approximately 3 h. Besides, the growth inhibition entry in data set [2] is “significant growth inhibition”. The solubility in data set [3] (20 mM HEPES buffer, 20 mM HEPES, pH 7.2) was determined as 212 g/L; in data set [3] (20 mM phosphate buffer, 20 mM Phosphate (10 mM Na2HPO4 + 10 mM NaH2PO4), pH 7.2), 212 g/L; in data set [3] (0.9% NaCl, pH 4.5), 2.31 g/L; in data set [3] (PBS, pH 7.4) it was 3.25 g/L; in data set [3] (water), 234 g/L. In addition, the “encapsulation efficiency (EE) %” value in data set [4] is 77%. In addition, in data set [4], the “final drug load in microspheres” value stood at 6 weight %. In addition, the “Chromogranin A release” value in data set [5] is reported as “inhibits”.

For the origin of these results see patent US10398751B2, “Pharmaceutical compositions of water soluble peptides with poor solubility in isotonic conditions and methods for their use” (STRONGBRIDGE IRELAND LIMITED, priority 2016, dated 2019).
